# Measurements reported in patent US20150164968A1, “Method of Producing Banana-Derived Composition and Biologically Active Substance Containing Same” (priority 2013, published 2015).
# Test: Action of antioxidation, OXY Adsorbent Test (FREE)
# Conditions: solution at 10 mg/ml in ultrapure water
# Method: The banana-derived composition 4 (the secondary refined product) as the biologically active substance and vitamin C were dissolved in ultrapure water to prepare solutions each at a concentration of 10 mg/ml. An antioxidation ability was measured twice for each of the prepared solutions. In detail, the antioxidation ability against oxidation through hypochlorous acid (HClO) was measured by means of Free Radical Elective Evaluator (FREE) manufactured by […] Co., Ltd. Oxygen (OXY) Adsorbent Test was applied to the measurement. As a result of the measurement, a concentration of HClO neutralized is obtained in the unit of μmol HClO/mL. A higher concentration value means a better HClO neutralization ability, that is to say, a stronger antioxidative action.
smiles,measurement,setting,value
"O=C1O[C@H]([C@@H](O)CO)C(O)=C1O [Vitamin C, vitamin C]","concentration of HClO neutralized, 1st measurement",,71.7 μmol HClO/mL
same,"concentration of HClO neutralized, 2nd measurement",,79.7 μmol HClO/mL
same,"concentration of HClO neutralized, Average",average of two measurements,75.7 μmol HClO/mL
